Data published in patent US11028075B2, “Therapeutic compounds and methods of use thereof” (GENENTECH, INC., priority 2018, dated 2021).
Where a name gives a salt, the structure may show the parent alone.

Assays:
hNav1.7 [1] = biological target: T1, hNav1.7 (Homo sapiens (Human), UniProt Q15858); assay: Tritiated compound binding to membranes from cells heterologously expressing hNav1.7 and the β1 subunit (Nav1.7 LBA); conditions: competitive binding vs [3H]compound, membranes with hNav1.7 and β1 subunit; read-out: Nav1.7 LBA EVO IC50
Description: Example 93A. Tritiated Compound Binding to Membranes Isolated from Cells that Heterologously Express hNav1.7 and the β1 Subunit
Preparation of membranes containing recombinantly expressed sodium channels: Frozen recombinant cell pellets are thawed on ice and diluted to 4 times the cell pellet weight with ice cold 50 mM Tris HCl, pH 7.4 buffer. The cell suspensions are homogenized on ice using a motorized glass dounce homogeniser. Homogenates are further diluted 8.4 times with ice cold 50 mM Tris HCl, pH 7.4 buffer and then centrifuged at 200×g at 4° C. for 15 minutes. The supernatants are collected and centrifuged at 10000×g at 4° C. for 50 min. The pellets are then re-suspended in 100 mM NaCl, 20 mM Tris HCl, pH 7.4 buffer containing 1% v/v protease inhibitors (Calbiochem) and re-homogenized on ice. The homogenized membranes are then processed through a syringe equipped with a 26 gauge needle. Protein concentrations arer determined by Bradford Assay and the membranes are stored at −80° C.
Saturation experiments. A competitive NaV1.7 inhibitor having a methyl group is tritiated. Three tritiums are incorporated in place of methyl hydrogens to generate [^3H]compound. Binding of this radioligand is performed in 5 mL borosilicate glass test tubes at room temperature. Binding is initiated by adding membranes to increasing concentrations of [^3H]compound in 100 mM NaCl, 20 mM Tris HCl, pH 7.4 buffer containing 0.01% w/v bovine serum albumin (BSA) for 18 h. Non-specific binding is determined in the presence of 1 μM unlabeled compound. After 18 h, the reactants are filtered through GF/C glass fiber filters presoaked in 0.5% w/v polyethylene imine. Filters are washed with 15 mL ice cold 100 mM NaCl, 20 mM Tris HCl, pH7.4 buffer containing 0.25% BSA to separate bound from free ligand. [^3H]compound bound to filters is quantified by liquid scintillation counting.
Binding reactions are performed in 96-well polypropylene plates at room temperature for 18 h. In 360 μL, membranes are incubated with […] [^3H]compound and increasing concentrations of Test Compound. Non-specific binding is defined in the presence of 1 μM unlabeled compound. Reactions are transferred and filtered through 96-well glass fiber/C filter plates presoaked with 0.5% polyethylene imine. The filtered reactions are washed 5 times with 200 μL ice cold buffer containing 0.25% BSA. Bound radioactivity is determined by liquid scintillation counting.
Data Analysis: For saturation experiments, non-specific binding is subtracted from total binding to provide specific binding and these values are recalculated in terms of pmol ligand bound per mg protein. Saturation curves are constructed and dissociation constants are calculated using the single site ligand binding model: Beq=(Bmax*X)/(X+Kd), where Beq is the amount of ligand bound at equilibrium, Bmax is the maximum receptor density, Kd is the dissociation constant for the ligand, and X is the free ligand concentration. For competition studies percent inhibition is determined and IC50 values are calculated using a 4 parameter logistic model (% inhibition=(A+((B−A)/(1+((x/C)^D)))) using XLfit, where A and B are the maximal and minimum inhibition respectively, C is the IC50 concentration and D is the (Hill) slope.
Example 93B. Tritiated Compound Binding to Membranes Isolated from Cells that Heterologous Express hNav1.7 and the β1 Subunit
Following the procedure described in Example 93A, and making modifications as required to: centrifuge supernatants at 100000×g instead of 10000×g; re-suspend pellets in a buffer containing 0.01% BSA in addition to 100 mM NaCl, 20 mM Tris HCl, pH 7.4 buffer, and 1% v/v proteasome inhibitors; and storing membranes at −80° C. in single use aliquots instead of pooled. […]
Target sequence in this assay (Q15858 whole entry, looked up): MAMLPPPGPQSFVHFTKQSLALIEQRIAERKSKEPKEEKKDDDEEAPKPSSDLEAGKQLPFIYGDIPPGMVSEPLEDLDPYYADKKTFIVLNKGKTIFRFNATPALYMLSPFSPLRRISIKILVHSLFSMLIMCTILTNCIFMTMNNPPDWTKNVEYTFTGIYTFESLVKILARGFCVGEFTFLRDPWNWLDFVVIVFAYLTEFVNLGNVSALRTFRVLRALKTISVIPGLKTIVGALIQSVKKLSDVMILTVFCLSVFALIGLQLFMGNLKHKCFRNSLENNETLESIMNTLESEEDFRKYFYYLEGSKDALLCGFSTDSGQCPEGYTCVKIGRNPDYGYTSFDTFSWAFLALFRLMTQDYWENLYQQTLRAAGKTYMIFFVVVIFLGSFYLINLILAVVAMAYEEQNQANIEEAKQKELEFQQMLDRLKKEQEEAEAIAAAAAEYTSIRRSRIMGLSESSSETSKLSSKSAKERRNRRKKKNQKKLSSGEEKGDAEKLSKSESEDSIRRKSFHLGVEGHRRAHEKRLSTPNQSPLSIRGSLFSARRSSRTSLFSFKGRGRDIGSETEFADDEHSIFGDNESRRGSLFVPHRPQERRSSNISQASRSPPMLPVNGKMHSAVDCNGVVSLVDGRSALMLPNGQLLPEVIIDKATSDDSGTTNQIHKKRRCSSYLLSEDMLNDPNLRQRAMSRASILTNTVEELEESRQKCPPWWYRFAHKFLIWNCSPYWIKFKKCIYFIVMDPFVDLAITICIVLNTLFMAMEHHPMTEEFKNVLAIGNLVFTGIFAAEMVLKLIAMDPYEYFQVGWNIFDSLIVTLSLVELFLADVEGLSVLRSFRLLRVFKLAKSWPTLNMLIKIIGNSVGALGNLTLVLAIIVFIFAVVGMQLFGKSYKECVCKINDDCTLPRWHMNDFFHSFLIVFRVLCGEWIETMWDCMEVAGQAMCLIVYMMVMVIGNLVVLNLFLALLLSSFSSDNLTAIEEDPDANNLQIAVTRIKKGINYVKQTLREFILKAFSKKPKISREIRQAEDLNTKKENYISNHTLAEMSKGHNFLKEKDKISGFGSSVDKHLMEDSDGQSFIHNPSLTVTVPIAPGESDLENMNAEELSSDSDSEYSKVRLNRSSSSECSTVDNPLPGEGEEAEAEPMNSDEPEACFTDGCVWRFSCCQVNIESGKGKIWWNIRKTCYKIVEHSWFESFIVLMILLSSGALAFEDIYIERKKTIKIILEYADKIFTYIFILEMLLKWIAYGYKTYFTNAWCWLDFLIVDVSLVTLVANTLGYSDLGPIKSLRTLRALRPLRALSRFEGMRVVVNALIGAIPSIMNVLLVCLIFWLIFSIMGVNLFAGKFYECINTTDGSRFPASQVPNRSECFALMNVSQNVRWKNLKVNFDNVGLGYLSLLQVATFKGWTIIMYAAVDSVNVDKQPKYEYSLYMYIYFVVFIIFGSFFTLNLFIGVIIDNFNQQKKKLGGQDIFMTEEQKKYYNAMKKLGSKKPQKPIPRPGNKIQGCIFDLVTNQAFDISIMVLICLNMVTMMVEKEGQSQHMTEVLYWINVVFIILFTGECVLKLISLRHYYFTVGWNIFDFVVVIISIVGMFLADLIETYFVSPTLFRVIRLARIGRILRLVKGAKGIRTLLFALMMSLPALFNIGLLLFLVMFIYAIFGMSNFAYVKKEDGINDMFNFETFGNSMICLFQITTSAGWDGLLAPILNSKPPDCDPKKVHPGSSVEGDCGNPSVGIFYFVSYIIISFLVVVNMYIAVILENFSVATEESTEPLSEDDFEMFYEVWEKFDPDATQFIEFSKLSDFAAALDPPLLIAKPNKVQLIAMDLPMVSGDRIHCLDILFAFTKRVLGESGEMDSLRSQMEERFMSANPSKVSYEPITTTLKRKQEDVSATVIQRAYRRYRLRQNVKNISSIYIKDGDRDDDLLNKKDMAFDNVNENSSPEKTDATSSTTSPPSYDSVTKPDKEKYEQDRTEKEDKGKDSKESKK
Target sequence in this assay (Q07699 whole entry partner, looked up): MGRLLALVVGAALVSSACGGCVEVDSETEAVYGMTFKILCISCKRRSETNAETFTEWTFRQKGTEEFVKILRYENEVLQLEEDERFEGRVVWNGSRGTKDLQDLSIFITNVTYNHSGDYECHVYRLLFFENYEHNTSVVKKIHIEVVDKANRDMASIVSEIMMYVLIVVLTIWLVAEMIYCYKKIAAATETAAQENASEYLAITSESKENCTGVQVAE

hNav1.7 [2] = biological target: T1, hNav1.7; assay: Electrophysiological assay (EP), voltage clamp on Syncropatch 384PE, CHO cells stably expressing Nav1.7; format: cell-based; conditions: holding potential −50 mV, 7.5 min compound incubation, read-out: EP_SP hNav1.7 EVO IC50
Source text: Example 93C. Electrophysiological Assay (EP) (In Vitro Assay)
Patch voltage clamp electrophysiology allows for the direct measurement and quantification of block of voltage-gated sodium channels (NaV's), and allows the determination of the time- and voltage-dependence of block which has been interpreted as differential binding to the resting, open, and inactivated states of the sodium channel (Hille, B., Journal of General Physiology (1977), 69: 497-515).
The following voltage clamp electrophysiology studies are performed on representative compounds using cells heterologously expressing Nav1.7 or Nav1.5 channels. cDNAsfor Nav1.7 (NM_002977) and Nav1.5 (AC137587) are stably expressed in Chinese Hamstr Ovary (CHO) cells and CHL (Chinese Hamster Lung) cells respectively. Sodium currents are measured in the whole-cell configuration using Syncropatch 384PE (Nanlon Technologies, Germany). 1NPC®-384 chips with custom medium resistance and single hole mode are used. Internal solution consists of (in mM): […], 10 […], 20 EGTA, and 10 Hepes (pH adjusted to 7.2); and external solution contains (in mM): 60 NMDG, 80 NaCl, 4 KCl, 1 MgCl2, 2 CaCl2, 2 D-Glucose monohydrate, 10 Hepes (pH adjusted to 7.4 with NaOH).
After system flushing, testing compounds are dissolved in external solution containing 0.1% Pluronic F-127. The chip is moved into the measuring head and the instrument primes the chip with external and internal solutions. 10 μl cells are added to the chip from a cell hotel, and a negative pressure of −50 mBar is applied to form a seal. Following treatment with seal enhancer solution and wash-off with external solution, negative pressure of −250 mbar is applied for 1 second to achieve the whole-cell configuration, followed by three washing steps in external solution. 20 μl of compounds is added to 40 μl in each well (1:3 dilution of compounds), and after mixing, 20 μl is removed so the volume is retained at 40 μl. After approximately 13 minutes recordings, 20 μl/well of 2 uM TTX, or 333 uM Tetracaine (for Nav1.5) is added to achieve full block.
For voltage protocol, an holding potential of −50 mV is applied during the whole experiment. A depolarizing step is applied to −10 mV for 10 ms, followed by a hyperpolarization step to −150 mV for 20 ms to allow channel recovery from inactivation. A second depolarizing step is applied from −150 mV to −10 mV for 10 ms, where currents are measured to derive blocking effects of compounds. Inhibition is determined based on 7.5 min of compound incubation.
Target sequence in this assay (Q15858 other isoform, or with tags, fused parts or gaps): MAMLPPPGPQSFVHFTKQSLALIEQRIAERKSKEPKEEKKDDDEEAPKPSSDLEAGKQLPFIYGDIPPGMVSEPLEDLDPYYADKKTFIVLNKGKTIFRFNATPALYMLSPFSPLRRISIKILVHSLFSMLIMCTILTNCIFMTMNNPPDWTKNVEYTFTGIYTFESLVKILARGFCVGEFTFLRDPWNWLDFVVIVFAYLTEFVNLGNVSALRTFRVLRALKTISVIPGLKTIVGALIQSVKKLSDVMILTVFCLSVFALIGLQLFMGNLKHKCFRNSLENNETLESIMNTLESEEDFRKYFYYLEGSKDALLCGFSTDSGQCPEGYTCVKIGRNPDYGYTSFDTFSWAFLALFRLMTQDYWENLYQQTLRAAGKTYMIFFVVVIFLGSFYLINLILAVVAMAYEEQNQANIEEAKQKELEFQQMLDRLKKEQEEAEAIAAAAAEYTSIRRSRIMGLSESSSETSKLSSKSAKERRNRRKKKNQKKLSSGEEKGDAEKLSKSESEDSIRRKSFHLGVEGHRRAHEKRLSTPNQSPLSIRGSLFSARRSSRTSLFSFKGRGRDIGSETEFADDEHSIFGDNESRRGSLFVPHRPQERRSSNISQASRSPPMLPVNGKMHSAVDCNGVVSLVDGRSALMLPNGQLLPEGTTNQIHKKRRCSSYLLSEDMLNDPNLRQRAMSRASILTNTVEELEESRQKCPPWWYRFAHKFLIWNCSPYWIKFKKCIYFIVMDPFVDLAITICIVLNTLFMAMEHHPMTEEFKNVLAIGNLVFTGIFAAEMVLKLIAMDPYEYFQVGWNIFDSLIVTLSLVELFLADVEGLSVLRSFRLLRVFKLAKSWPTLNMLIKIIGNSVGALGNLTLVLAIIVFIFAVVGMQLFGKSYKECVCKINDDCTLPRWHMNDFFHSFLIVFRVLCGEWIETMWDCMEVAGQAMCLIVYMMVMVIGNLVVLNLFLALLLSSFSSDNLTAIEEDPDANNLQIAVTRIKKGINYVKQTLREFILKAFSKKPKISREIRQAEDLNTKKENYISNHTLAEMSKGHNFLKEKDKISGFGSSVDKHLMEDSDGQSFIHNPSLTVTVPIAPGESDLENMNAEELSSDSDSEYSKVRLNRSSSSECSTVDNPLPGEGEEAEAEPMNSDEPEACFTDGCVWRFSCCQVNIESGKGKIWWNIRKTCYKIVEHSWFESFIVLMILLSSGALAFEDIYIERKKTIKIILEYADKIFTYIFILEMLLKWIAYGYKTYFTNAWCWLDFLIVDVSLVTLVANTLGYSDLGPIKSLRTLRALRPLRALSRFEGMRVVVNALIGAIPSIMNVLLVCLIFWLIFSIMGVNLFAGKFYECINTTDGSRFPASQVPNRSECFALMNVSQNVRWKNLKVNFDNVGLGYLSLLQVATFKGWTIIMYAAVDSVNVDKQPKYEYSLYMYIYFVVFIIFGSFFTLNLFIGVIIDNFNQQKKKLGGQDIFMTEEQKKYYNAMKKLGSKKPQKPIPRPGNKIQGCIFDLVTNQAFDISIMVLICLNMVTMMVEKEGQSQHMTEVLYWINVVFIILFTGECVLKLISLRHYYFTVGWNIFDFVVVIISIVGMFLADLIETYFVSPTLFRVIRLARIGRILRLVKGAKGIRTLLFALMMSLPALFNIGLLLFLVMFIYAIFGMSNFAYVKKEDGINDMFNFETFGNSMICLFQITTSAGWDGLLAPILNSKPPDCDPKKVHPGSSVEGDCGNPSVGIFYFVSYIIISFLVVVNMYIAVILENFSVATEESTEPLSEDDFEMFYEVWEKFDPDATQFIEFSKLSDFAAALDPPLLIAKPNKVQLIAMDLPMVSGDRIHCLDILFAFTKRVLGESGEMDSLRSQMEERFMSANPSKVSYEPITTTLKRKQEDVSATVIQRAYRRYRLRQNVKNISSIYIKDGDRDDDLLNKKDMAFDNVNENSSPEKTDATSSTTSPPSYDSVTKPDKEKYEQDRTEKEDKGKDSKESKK

IC50 (hNav1.7 [1])	IC50 (hNav1.7 [2])	SMILES
1.36 nM	0.652 nM	CN(C)[C@H]1C[C@@H](c2cc(C(F)(F)F)cc(C(F)(F)F)c2)CC[C@@H]1Nc1cc(F)c(S(=O)(=O)Nc2ccncn2)cc1F [Example 13, 4-(((1S,2S,4S)-4-(3,5-bis(trifluoromethyl)phenyl)-2-(dimethylamino)cyclohexyl)amino)-2,5-difluoro-N-(pyrimidin-4-yl)benzenesulfonamide]
7.57 nM	1.64 nM	Cc1cccc([C@H]2CC[C@H](Nc3cc(F)c(S(=O)(=O)Nc4ccncn4)cc3Cl)[C@@H](N(C)C)C2)c1 [Example 11, 5-Chloro-4-(((1S,2S,4S)-2-(dimethylamino)-4-(m-tolyl)cyclohexyl)amino)-2-fluoro-N-(pyrimidin-4-yl)benzenesulfonamide formate]
7.94 nM	1.18 nM	CN1CC(N[C@H]2C[C@@H](c3cccc(C(F)(F)F)c3)CC[C@@H]2Oc2cc(F)c(S(=O)(=O)Nc3ccncn3)cc2Cl)C1 [Example 87, 5-chloro-2-fluoro-4-(((1S,2S,4S)-2-((1-methylazetidin-3-yl)amino)-4-(3-(trifluoromethyl)phenyl)-cyclohexyl)oxy)-N-(pyrimidin-4-yl)benzenesulfonamide]
0.681 nM	0.694 nM	O=CO.[2H]C([2H])([2H])N([C@H]1C[C@@H](c2cccc(C(F)(F)F)c2)CC[C@@H]1Nc1cc(F)c(S(=O)(=O)Nc2ccncn2)cc1Cl)C([2H])([2H])[2H] [Example 9, 4-[[(1S,2S,4S)-2-[bis(trideuteriomethyl)amino]-4-[3-(trifluoromethyl)phenyl]-cyclohexyl]amino]-5-chloro-2-fluoro-N-pyrimidin-4-yl-benzenesulfonamide formate]
169 nM	4.65 nM	CN(C)[C@H]1C[C@@H](c2cccc(C(F)(F)F)c2)CC[C@@H]1N(C)c1cc(F)c(S(=O)(=O)Nc2ccncn2)cc1Cl [Example 51, 5-Chloro-4-(((1S,2S,4S)-2-(dimethylamino)-4-(3-(trifluoromethyl)phenyl)cyclohexyl)-(methyl)amino)-2-fluoro-N-(pyrimidin-4-yl)benzenesulfonamide formate]
0.661 nM	0.334 nM	CN1CC(N(C)[C@H]2C[C@@H](c3cccc(C(F)(F)F)c3)CC[C@@H]2Oc2cc(F)c(S(=O)(=O)Nc3ccncn3)cc2Cl)C1 [Example 81, 5-chloro-2-fluoro-4-(((1S,2S,4S)-2-(methyl(1-methylazetidin-3-yl)amino)-4-(3-(trifluoromethyl)phenyl)cyclohexyl)oxy)-N-(pyrimidin-4-yl)benzenesulfonamide formate]
≥ 2000 nM	9440 nM	CN(C)[C@@H]1C[C@@](O)(c2cccc(C(F)(F)F)c2)CC[C@H]1Nc1cc(F)c(S(=O)(=O)Nc2ccncn2)cc1Cl (single isomer, unassigned) [Example 38, formate]
2.59 nM	0.732 nM	CN(CCO)[C@H]1C[C@@H](c2cccc(C(F)(F)F)c2)CC[C@@H]1Oc1cc(F)c(S(=O)(=O)Nc2ccncn2)cc1Cl [Example 66, 5-chloro-2-fluoro-4-(((1S,2S,4S)-2-((2-hydroxyethyl)(methyl)amino)-4-(3-(trifluoromethyl)-phenyl)cyclohexyl)oxy)-N-(pyrimidin-4-yl)benzenesulfonamide formate]
12.9 nM	8.03 nM	CN(C)[C@H]1C[C@@H](c2cccc(-c3ccnn3C)c2)CC[C@@H]1Nc1cc(F)c(S(=O)(=O)Nc2ccncn2)cc1Cl [Example 21, 5-Chloro-4-(((1S,2S,4S)-2-(dimethylamino)-4-(3-(1-methyl-1H-pyrazol-5-yl)phenyl)-cyclohexyl)amino)-2-fluoro-N-(pyrimidin-4-yl)benzenesulfonamide]
0.604 nM	1.41 nM	CN(C)[C@H]1C[C@@H](c2cccc(C(F)(F)F)c2)CC[C@@H]1N1CCCc2cc(S(=O)(=O)Nc3ccncn3)c(F)cc21 [Example 54, 1-((1S,2S,4S)-2-(Dimethylamino)-4-(3-(trifluoromethyl)phenyl)cyclohexyl)-7-fluoro-N-(pyrimidin-4-yl)-1,2,3,4-tetrahydroquinoline-6-sulfonamide]
1.37 nM	0.519 nM	CN(C)[C@H]1C[C@@H](c2cccc(C(F)(F)F)c2)CC[C@@H]1Nc1cc(F)c(S(=O)(=O)Nc2ccncn2)cc1OC(F)F [Example 5, 5-(Difluoromethoxy)-4-(((1S,2S,4S)-2-(dimethylamino)-4-(3-(trifluoromethyl)phenyl)-cyclohexyl)amino)-2-fluoro-N-(pyrimidin-4-yl)benzenesulfonamide formate]
23.6 nM	2.73 nM	O=C1COc2cc(S(=O)(=O)Nc3ccncn3)c(F)cc2N1[C@H]1CC[C@H](c2cccc(C(F)(F)F)c2)C[C@@H]1N1CCCC1 [Example 49, 6-Fluoro-3-oxo-N-(pyrimidin-4-yl)-4-((1S,2S,4S)-2-(pyrrolidin-1-yl)-4-(3-(trifluoromethyl)-phenyl)cyclohexyl)-3,4-dihydro-2H-benzo[b][1,4]oxazine-7-sulfonamide]
50.6 nM	2.62 nM	CN(C)[C@H]1C[C@@H](c2cccc(Cl)c2Cl)CC[C@@H]1Oc1cc(F)c(S(=O)(=O)Nc2ccncn2)cc1Cl [Example 75, 5-chloro-4-(((1S,2S,4S)-4-(2,3-dichlorophenyl)-2-(dimethylamino)cyclohexyl)oxy)-2-fluoro-N-(pyrimidin-4-yl)benzenesulfonamide]
21.2 nM	19.4 nM	CN(C)[C@H]1C[C@@H](c2cccc(-c3cnn(C)c3)c2)CC[C@@H]1Nc1cc(F)c(S(=O)(=O)Nc2ccncn2)cc1Cl [Example 22]
0.877 nM	0.52 nM	O=S(=O)(Nc1ccncn1)c1cc(F)c(N[C@H]2CC[C@H](c3ccc(F)c(C(F)(F)F)c3)C[C@@H]2N2CCCC2)cc1F [Example 84, 2,5-difluoro-4-(((1S,2S,4S)-4-(4-fluoro-3-(trifluoromethyl)phenyl)-2-(pyrrolidin-1-yl)cyclohexyl)-amino)-N-(pyrimidin-4-yl)benzenesulfonamide]
